Measured values reported in patent publication US6737383B1, “Herbicidal oxadiazolidines” (priority 1999, dated 2004).

Assays:
bedstraw = experiment: Test B pre/postemergence bedstraw; format: in vivo, Galium aparine
Procedure, shortened: (§1)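 Herbicidal effect was estimated by eye on a ten-point control scale after plants spent twelve to sixteen days in a greenhouse following soil or foliar treatment. Foliar sprays targeted plants at one to four leaves; all doses were formulated in a non-phytotoxic solvent with surfactant.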

blackgrass = experiment: Test B pre/postemergence blackgrass; format: in vivo, Alopecurus myosuroides
Procedure, shortened: as §1

surinam grass = experiment: Test B pre/postemergence surinam grass; format: in vivo, Brachiaria decumbens
Procedure, shortened: as §1

cocklebur = experiment: Test B pre/postemergence cocklebur; format: in vivo, Xanthium strumarium
Procedure, shortened: as §1

corn = experiment: Test B pre/postemergence corn; format: in vivo, Zea mays
Procedure, shortened: as §1

crabgrass = experiment: Test B pre/postemergence crabgrass; format: in vivo, Digitaria sanguinalis
Procedure, shortened: as §1

giant foxtail = experiment: Test B pre/postemergence giant foxtail; format: in vivo, Setaria faberii
Procedure, shortened: as §1

morningglory = experiment: Test B pre/postemergence morningglory; format: in vivo, Ipomoea hederacea
Procedure, shortened: as §1

pigweed = experiment: Test B pre/postemergence pigweed; format: in vivo, Amaranthus retroflexus
Procedure, shortened: as §1

soybean = experiment: Test B pre/postemergence soybean; format: in vivo, Glycine max
Procedure, shortened: as §1

sugar beet = experiment: Test B pre/postemergence sugar beet; format: in vivo, Beta vulgaris
Procedure, shortened: as §1

wild oat = experiment: Test B pre/postemergence wild oat; format: in vivo, Avena fatua
Procedure, shortened: as §1

purple nutsedge = experiment: Test B pre/postemergence purple nutsedge; format: in vivo, Cyperus rotundus
Procedure, shortened: as §1

rice = experiment: Test B flood test rice; format: in vivo, Oryza sativa
Procedure, shortened: (§2)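 Flood test on plants grown to the 2-leaf stage; treated plants kept in greenhouse twelve to sixteen days, then visually rated against controls on a 0 (no effect) to 10 (complete control) scale.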

smallflower flatsedge = experiment: Test B flood test smallflower flatsedge; format: in vivo, Cyperus difformis
Procedure, shortened: as §2

duck salad = experiment: Test B flood test duck salad; format: in vivo, Heteranthera limosa
Procedure, shortened: as §2

[1] = Postemergence, Rate 125 g/ha, scale of 0 to 10 where 0 is no effect and 10 is complete control
[2] = Preemergence, Rate 62 g/ha, scale of 0 to 10 where 0 is no effect and 10 is complete control
[3] = Preemergence, Rate 125 g/ha, 0 is no effect, 10 is complete control
[4] = Preemergence, Rate 250 g/ha, scale 0 to 10, 0 is no effect, 10 is complete control
[5] = Preemergence, Rate 500 g/ha, scale 0 to 10 (0 no effect, 10 complete control)
[6] = Rate 62 g/ha, Postemergence, scale of 0 to 10 where 0 is no effect and 10 is complete control
[7] = Rate 250 g/ha, Postemergence, scale 0 to 10, 0 is no effect, 10 is complete control
[8] = Rate 500 g/ha, Postemergence, scale 0 to 10
[9] = Postemergence (flood test species), Rate 125 g/ha, scale of 0 to 10 where 0 is no effect and 10 is complete control
[10] = Rate 62 g/ha, Postemergence section, flood test species, scale of 0 to 10 where 0 is no effect and 10 is complete control
[11] = Rate 250 g/ha, Postemergence (flood test), scale 0 to 10, 0 is no effect, 10 is complete control
[12] = Rate 500 g/ha, listed under Postemergence (flood test species), scale 0 to 10

Cc1nsc(C)c1-n1c(=O)on(C(=O)N(c2ccc(Cl)cc2)C(C)C)c1=O [Compound 159]
Bedstraw plant response rating (bedstraw; [1]): 0 | Bedstraw plant response rating (bedstraw; [2]): 0 | Bedstraw plant response rating (0 to 10 scale) (bedstraw; [3]): 0 | Bedstraw plant response rating (bedstraw; [4]): 0 | Bedstraw plant response rating (bedstraw; [5]): 0 | Bedstraw plant response rating (bedstraw; [6]): 0 | Plant response rating, Bedstraw (bedstraw; [7]): 0 | Bedstraw plant response rating (bedstraw; [8]): 0 | Blackgrass plant response rating (blackgrass; [1]): 0 | Blackgrass plant response rating (blackgrass; [2]): 0 | Blackgrass plant response rating (0 to 10 scale) (blackgrass; [3]): 0 | Blackgrass plant response rating (blackgrass; [4]): 0 | Blackgrass plant response rating (blackgrass; [5]): 0 | Blackgrass plant response rating (blackgrass; [6]): 0 | Plant response rating, Blackgrass (blackgrass; [7]): 0 | Blackgrass plant response rating (blackgrass; [8]): 0 | B. signalgrass plant response rating (surinam grass; [1]): 0 | B. signalgrass plant response rating (surinam grass; [2]): 0 | B. signalgrass plant response rating (0 to 10 scale) (surinam grass; [3]): 0 | B. signalgrass plant response rating (surinam grass; [4]): 0 | B. signalgrass plant response rating (surinam grass; [5]): 0 | B. signalgrass plant response rating (surinam grass; [6]): 0 | Plant response rating, B. signalgrass (surinam grass; [7]): 0 | B. signalgrass plant response rating (surinam grass; Rate 500 g/ha, Postemergence, scale 0 to 10, 0 no effect, 10 complete control): 0 | Cocklebur plant response rating (cocklebur; [1]): 0 | Cocklebur plant response rating (cocklebur; [2]): 0 | Cocklebur plant response rating (0 to 10 scale) (cocklebur; [3]): 0 | Cocklebur plant response rating (cocklebur; [4]): 0 | Cocklebur plant response rating (cocklebur; [5]): 0 | Cocklebur plant response rating (cocklebur; [6]): 0 | Plant response rating, Cocklebur (cocklebur; [7]): 0 | Cocklebur plant response rating (cocklebur; [8]): 0 | Corn plant response rating (corn; [1]): 0 | Corn plant response rating (corn; [2]): 0 | Corn plant response rating (0 to 10 scale) (corn; [3]): 0 | Corn plant response rating (corn; [4]): 0 | Corn plant response rating (corn; [5]): 0 | Corn plant response rating (corn; [6]): 0 | Plant response rating, Corn (corn; [7]): 0 | Corn plant response rating (corn; [8]): 0 | Crabgrass plant response rating (crabgrass; [1]): 0 | Crabgrass plant response rating (crabgrass; [2]): 0 | Crabgrass plant response rating (0 to 10 scale) (crabgrass; [3]): 0 | Crabgrass plant response rating (crabgrass; [4]): 0 | Crabgrass plant response rating (crabgrass; [5]): 0 | Crabgrass plant response rating (crabgrass; [6]): 0 | Plant response rating, Crabgrass (crabgrass; [7]): 0 | Crabgrass plant response rating (crabgrass; [8]): 0 | Giant foxtail plant response rating (giant foxtail; [1]): 0 | Giant foxtail plant response rating (giant foxtail; [2]): 0 | Giant foxtail plant response rating (0 to 10 scale) (giant foxtail; [3]): 0 | Giant foxtail plant response rating (giant foxtail; [4]): 0 | Giant foxtail plant response rating (giant foxtail; [5]): 0 | Giant foxtail plant response rating (giant foxtail; [6]): 0 | Plant response rating, Giant foxtail (giant foxtail; [7]): 0 | Giant foxtail plant response rating (giant foxtail; [8]): 0 | Morningglory plant response rating (morningglory; [1]): 2 | Morningglory plant response rating (morningglory; [2]): 0 | Morningglory plant response rating (0 to 10 scale) (morningglory; [3]): 0 | Morningglory plant response rating (morningglory; [4]): 0 | Morningglory plant response rating (morningglory; [5]): 0 | Morningglory plant response rating (morningglory; [6]): 0 | Plant response rating, Morningglory (morningglory; [7]): 3 | Morningglory plant response rating (morningglory; [8]): 4 | Redroot pigweed plant response rating (pigweed; [1]): 0 | Redroot pigweed plant response rating (pigweed; [2]): 0 | Redroot pigweed plant response rating (0 to 10 scale) (pigweed; [3]): 0 | Redroot pigweed plant response rating (pigweed; [4]): 0 | Redroot pigweed plant response rating (pigweed; [5]): 0 | Redroot pigweed plant response rating (pigweed; [6]): 0 | Plant response rating, Redroot pigweed (pigweed; [7]): 0 | Redroot pigweed plant response rating (pigweed; [8]): 0 | Soybean plant response rating (soybean; [1]): 3 | Soybean plant response rating (soybean; [2]): 0 | Soybean plant response rating (0 to 10 scale) (soybean; [3]): 0 | Soybean plant response rating (soybean; [4]): 0 | Soybean plant response rating (soybean; [5]): 0 | Soybean plant response rating (soybean; [6]): 0 | Plant response rating, Soybean (soybean; [7]): 3 | Soybean plant response rating (soybean; [8]): 3 | Sugarbeets plant response rating (sugar beet; [1]): 0 | Sugarbeets plant response rating (sugar beet; [2]): 0 | Sugarbeets plant response rating (0 to 10 scale) (sugar beet; [3]): 0 | Sugarbeets plant response rating (sugar beet; [4]): 0 | Sugarbeets plant response rating (sugar beet; [5]): 0 | Sugarbeets plant response rating (sugar beet; [6]): 0 | Plant response rating, Sugarbeets (sugar beet; [7]): 0 | Sugarbeets plant response rating (sugar beet; [8]): 0 | Wild oats plant response rating (wild oat; [2]): 0 | Wild oats plant response rating (0 to 10 scale) (wild oat; [3]): 0 | Wild oats plant response rating (wild oat; [4]): 0 | Wild oats plant response rating (wild oat; [5]): 0 | Plant response rating, Wild oats (wild oat; [7]): 0 | Wild oats plant response rating (wild oat; [8]): 0 | Nutsedge plant response rating (purple nutsedge; [1]): 0 | Nutsedge plant response rating (purple nutsedge; [2]): 0 | Nutsedge plant response rating (0 to 10 scale) (purple nutsedge; [3]): 0 | Nutsedge plant response rating (purple nutsedge; [4]): 0 | Nutsedge plant response rating (purple nutsedge; [5]): 0 | Nutsedge plant response rating (purple nutsedge; [6]): 0 | Plant response rating, Nutsedge (purple nutsedge; [7]): 0 | Nutsedge plant response rating (purple nutsedge; [8]): 0 | Rice plant response rating (rice; [9]): 0 | Rice plant response rating (rice; [10]): 0 | Plant response rating, Rice (rice; [11]): 0 | Rice plant response rating (rice; [12]): 0 | S. Flatsedge plant response rating (smallflower flatsedge; [9]): 0 | S. Flatsedge plant response rating (smallflower flatsedge; [10]): 0 | Plant response rating, S. Flatsedge (smallflower flatsedge; [11]): 0 | S. Flatsedge plant response rating (smallflower flatsedge; [12]): 0 | Ducksalad plant response rating (duck salad; [9]): 0 | Ducksalad plant response rating (duck salad; [10]): 0 | Plant response rating, Ducksalad (duck salad; [11]): 0 | Ducksalad plant response rating (duck salad; [12]): 0
